Measured values taken from publication PMC6386598 (Cell chemical biology, 2018).

Experiment: Calcein leakage from SUVs, stated for several vesicle compositions together
Conditions: control peptide; all SUVs tested: PC:PE (60:40), PC:PE (80:20), PC:PG (60:40)

melittin
calcein leakage (in words): induced calcein leakage from all SUVs tested
